For series [1], the system named is Target C. Kind of series: HiBiT protein abundance assay, Target C (K562 HiBiT knock-in). The conditions noted are these: HiBiT knock-in K562 cells, 24 hours, top dose 10 μM. It counts as cell-based, human. The method, boiled down:
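K562 HiBiT knock-in cells (10000/well) were treated 24 h at 37° C with a 10-point 3-fold dilution series (top 10 μM final, ≤0.25% DMSO). HiBiT luminescence was read after lytic LgBiT detection. Percent response used unmodified K562 and DMSO-treated knock-in controls, and IC50 came from a four-parameter fit at 50% of untreated.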

For the next series, the system named is HTT. Kind of series: HiBiT protein abundance assay, HTT (K562 HiBiT knock-in). In kind it is cell-based, human. The conditions noted are these: HiBiT knock-in K562 cells, 24 hours, top dose 10 μM. Summed up:
(§1)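 Steps: seed HiBiT knock-in K562 cells; add compound in 10-point 3-fold series from 10 μM final; incubate 24 h, 37 °C; add lytic HiBiT reagent, shake 5 min, wait 10 min; read luminescence. Normalize to parental K562 and DMSO controls, fit 4PL, take IC50.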

Another series concerns SMN2 mRNA. Description: RT-qPCR splicing assay, SMN2 mRNA. The conditions noted are these: Homo sapiens, canonical junction qPCR panel, Table 4; read-out: SMN2 IC50 (decrease in CJ mRNA levels). It counts as cell-based, human. The method, boiled down:
(§2)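 A673 or K562 cells treated 24 h at 37 °C with 11-point 3-fold dilutions (top final 10 uM, DMSO ≤0.25%). Lysates analysed by one-step RT-qPCR for canonical (CJ) and alternative-exon (AJ) junctions, normalized to GAPDH, GUSB or PPIA. ΔΔCt vs DMSO, RQ = 2^(−ΔΔCt), expressed as percentage response.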

The next series concerns MYB. Description: HiBiT protein abundance assay, MYB (K562 HiBiT knock-in). It counts as cell-based, human. The conditions noted are these: HiBiT knock-in K562 cells, 24 hours, top dose 10 μM. The method, boiled down: as §1
The next series concerns K562 cells. Description: Cell Titer Glo 2.0 cell viability (toxicity) assay, K562. The following applies: 500 cells/well, 72 hours.
A further series has as its system MYB mRNA. Kind of series: RT-qPCR splicing assay, MYB mRNA canonical (CJ) and alternative (AJ) junction. In kind it is cell-based, human. The following applies: Homo sapiens. Summed up:
as §2

The next series has as its system HTT mRNA. Description: RT-qPCR splicing assay, HTT mRNA canonical (CJ) and alternative (AJ) junction. It counts as cell-based, human. The conditions noted are these: Homo sapiens. The method, boiled down:
as §2

Series [2] has as its system Target C. Kind of series: RT-qPCR canonical junction panel assay, Target C mRNA. It counts as cell-based. The following applies: Table 4, read-out: Target C IC50 (decrease in CJ mRNA levels). Here is the method:
Compounds described herein were used to modulate RNA transcript abundance in cells. The expression of a target mRNA was measured by detecting the formation of an exon-exon junction in the canonical transcript (CJ). A compound mediated exon-inclusion event was detected by observing an increase in formation of a new junction with an alternative exon (AJ). Real-time qPCR assays were used to detect these splicing switches and interrogate the potency of various compounds towards different target genes. A high-throughput real time quantitative PCR (RT-qPCR) assay was developed to measure these two isoforms of the mRNA (CJ and AJ) for exemplary genes, such as HTT, SMN2, and MYB, together with a control housekeeping gene, GAPDH or GUSB or PPIA, used for normalization. Briefly, the A673 or K562 cell line was treated with various compounds described herein (e.g., compounds of Formula (I)). After treatment, the levels of the HTT, MYB, or SMN2 mRNA targets were determined from each sample of cell lysate by cDNA synthesis followed by qPCR.
The data analysis was performed by first determining the ΔCt vs the housekeeper gene. This ΔCt was then normalized against the DMSO control (ΔΔCt) and converted to RQ (relative quantification) using the 2^(−ΔΔCt) equation. The RQ were then converted to a percentage response by arbitrarily setting an assay window of 3.5 and 4.0 ΔCt for HTT-CJ and MYB-CJ respectively and an assay window of 9 and 3 ΔCt for HTT-AJ and MYB-AJ in 96 well format (50,000 K562 cells/well and 15,000 A673 cells per well) and an assay window of 3 and 4 ΔCt for HTT-CJ and MYB-CJ respectively and an assay window of 5 and 3 ΔCt for HTT-AJ and MYB-AJ respectively in 384 well format (8,000 K562 cells/well example). […] The percentage response was then fitted to the 4 parametric logistic equation to evaluate the concentration dependence of compound treatment. The increase in AJ mRNA is reported as AC50 (compound concentration having 50% response in AJ increase) while the decrease in CJ mRNA levels is reported as IC50 (compound concentration having […] in CJ decrease).
Additional studies were carried out for a larger panel of genes using the protocol provided above. The junction between flanking upstream and downstream exons was used to design canonical junction Qpcr assays. At least one of the forward primer, reverse primer or the CY5-labeled 5′ nuclease probe (with 3′ quencher such as ZEN/Iowa Black FQ) was designed to overlap with the exon junction to capture the CJ Mrna transcript. BLAST was used to confirm the specificity of the probeset and parameters suCH As melting temperature, GC content, amplicon size, and primer dimer formation are considered during their design. Data for the decrease in CJ Mrna levels for four exemplary genes (HTT, SMN2, MYB, and Target C) analyzed in this panel are reported as IC50 (compound concentration having […] in CJ decrease).

Where [3] appears, read: canonical junction qPCR panel, Table 4, read-out: MYB IC50 (decrease in CJ mRNA levels).
Setting [4] is: canonical junction qPCR panel, Table 4, read-out: HTT IC50 (decrease in CJ mRNA levels).
Setting [5] is: RT-qPCR, MYB alternative junction mRNA increase, read-out: MYB AJ (increase in alternative junction mRNA, AC50).
The mark [6] stands for this setting: RT-qPCR, MYB canonical junction mRNA decrease, read-out: MYB CJ (decrease in canonical junction mRNA, IC50).
Setting [7] is: RT-qPCR, HTT alternative junction mRNA increase, read-out: HTT AJ (increase in alternative junction mRNA, AC50).
The mark [8] stands for this setting: RT-qPCR, HTT canonical junction mRNA decrease, read-out: HTT CJ (decrease in canonical junction mRNA, IC50).

Where two headings read alike, the source gives them in different places. Some results are limits rather than exact numbers.

Consider `Cc1c(O)c(-c2ccc3nc(N4CC[C@H](NC5CC5)C4)ccc3n2)cc2cn(C)nc12` [Compound 260], for which the IC50 with Target C [1] is less than 100 nM; in the series with HTT, less than 100 nM; with SMN2 mRNA it was less than 100 nM; in the series on MYB it was less than 100 nM; in the series with MYB mRNA (MYB canonical junction mRNA, RT-qPCR, read-out: MYB CJ (decrease in CJ mRNA levels, IC50)), less than 100 nM; in the series on MYB mRNA (setting [3]), less than 100 nM. Besides, the half-inhibitory concentration (IC50) is less than 100 nM in the series on HTT mRNA (HTT canonical junction mRNA, RT-qPCR, read-out: HTT CJ (decrease in CJ mRNA levels, IC50)) and less than 100 nM in the series on HTT mRNA (setting [4]). For the same molecule, the “Effect of Exemplary Compounds on Cell Viability, K562” value (shortened to “Effect of Exemplary Compounds”) with K562 cells is listed as “B (B represents 100-1000 nM)”. The AC50 in the series with MYB mRNA (MYB alternative junction mRNA, RT-qPCR, read-out: MYB AJ (increase in AJ mRNA, AC50)) was less than 100 nM; with HTT mRNA (HTT alternative junction mRNA, RT-qPCR, read-out: HTT AJ (increase in AJ mRNA, AC50)), less than 100 nM.
For the molecule `Cc1c(O)c(-c2nc(C3CCC3)c3cc(N4C[C@@H](C)N[C@@H](C)C4)ccc3n2)cc2cn(C)nc12` [Compound 790, 5-{4-cyclobutyl-6-[(3R,5S)-3,5-dimethylpiperazin-1-yl]quinazolin-2-yl}-2,7-dimethylindazol-6-ol], in the series with K562 cells, the “Effect of Exemplary Compounds” value is recorded as “C (C represents 1000-9999 nM)”. Besides, the concentration for half-maximal inhibition (IC50) with Target C [2] was more than 10000 nM; in the series with MYB mRNA (setting [6]), 1000 to 10000 nM; with MYB mRNA (setting [3]), 1000 to 10000 nM; with HTT mRNA (setting [8]), 1000 to 10000 nM; in the series with HTT mRNA (setting [4]), 1000 to 10000 nM. Also, the AC50 was 1000 to 10000 nM with MYB mRNA (setting [5]) and more than 10000 nM in the series on HTT mRNA (setting [7]).
Regarding `C[C@@H]1CN(c2ccc3nc(-c4cc5cn(C)nc5cc4O)nc(C4CCC4)c3c2)C[C@H](C)N1` [Compound 791, 5-{4-cyclobutyl-6-[(3R,5S)-3,5-dimethylpiperazin-1-yl]quinazolin-2-yl}-2-methylindazol-6-ol], in the series with K562 cells, the “Effect of Exemplary Compounds” value was “B (B represents 100-1000 nM)”. Further, the IC50 in the series with Target C [2] is more than 10000 nM; in the series on MYB mRNA (setting [6]) it was 1000 to 10000 nM; in the series on MYB mRNA (setting [3]), 1000 to 10000 nM; in the series on HTT mRNA (setting [8]) it was 1000 to 10000 nM; in the series with HTT mRNA (setting [4]) it was 1000 to 10000 nM. The AC50 in the series on MYB mRNA (setting [5]) is 1000 to 10000 nM; with HTT mRNA (setting [7]) it was more than 10000 nM.
As to `Cc1c(O)c(-c2ncc3cc(N4CCNC5(CC5)C4)ccc3n2)cc2cn(C)nc12` [Compound 792, 5-(6-{4,7-diazaspiro[2.5]octan-7-yl}quinazolin-2-yl)-2,7-dimethylindazol-6-ol], in the series on K562 cells, the “Effect of Exemplary Compounds” value is recorded as “B (B represents 100-1000 nM)”. In addition, the half-maximal inhibitory concentration (IC50) in the series with Target C [2] was 1000 to 10000 nM; with MYB mRNA (setting [6]), 100 to 1000 nM; in the series with MYB mRNA (setting [3]), 100 to 1000 nM; with HTT mRNA (setting [8]), 100 to 1000 nM; in the series on HTT mRNA (setting [4]), 100 to 1000 nM. Besides, the AC50 was 100 to 1000 nM in the series on MYB mRNA (setting [5]) and 1000 to 10000 nM in the series with HTT mRNA (setting [7]).
`Cc1nc(-c2cc3cn(C)nc3c(C)c2O)nc2ccc(N3CCNC4(CC4)C3)cc12` [Compound 793, 5-(6-{4,7-diazaspiro[2.5]octan-7-yl}-4-methylquinazolin-2-yl)-2,7-dimethylindazol-6-ol]: the “Effect of Exemplary Compounds” value in the series with K562 cells is “B (B represents 100-1000 nM)”. In addition, the IC50 with Target C [2] is more than 10000 nM; in the series with MYB mRNA (setting [6]), 100 to 1000 nM; with MYB mRNA (setting [3]), 100 to 1000 nM; in the series on HTT mRNA (setting [8]) it was 1000 to 10000 nM; in the series with HTT mRNA (setting [4]) it was 1000 to 10000 nM. In addition, the AC50 fell in the range of 100 to 1000 nM in the series on MYB mRNA (setting [5]) and 1000 to 10000 nM in the series on HTT mRNA (setting [7]).

The values above are taken from patent US20250092065A1, “2-(INDAZOL-5-YL)-6-(PIPERIDIN-4-YL)-1,7-NAPHTHYRIDINE DERIVATIVES AND RELATED COMPOUNDS AS MODULATORS FOR SPLICING NUCLEIC ACIDS AND FOR THE TREATMENT OF PROLIFERATIVE DISEASES” (REMIX THERAPEUTICS INC., priority 2022, published 2025).
